Assay results: patent US20060025566A1, “Macrocyclic modulators of the ghrelin receptor” (Tranzyme Pharma Inc., priority 2003, published 2006)
Read-outs that look alike come from different tables or passages of the source.

How the values were obtained:
[1] = biological target: human ghrelin receptor (hGHS-R1a) (Homo sapiens, UniProt Q92847); assay: Aequorin functional assay (ghrelin receptor), CHO-K1 cells co-expressing Gα16 and aequorin; assay type: cell-based; conditions: functional (agonist) activity, standard method; TFA salts unless otherwise noted
Text: Coelenterazine (Molecular Probes, Leiden, The Netherlands). […] Compound Handling
(§1) • 1. […] Key Aspects of Method • 1. […] Results

[2] = biological target: T1, human growth hormone secretagogue receptor (hGHS-R1a) (Homo sapiens, UniProt Q92847); assay: Competitive radioligand binding assay (ghrelin receptor), [125I]-ghrelin displacement on GHS-R/HEK 293 membranes
T1 construct: purchased PerkinElmer BioSignal #RBHGHSM, lot#1887; host or cells: HEK-293, stably transfected (membranes)
Method: The competitive binding assay at the human growth hormone secretagogue receptor (hGHS-R1a) was carried out analogously to assays described in the literature.
Multiscreen Harvest plates-GF/C (Millipore, #MAHFC 1H60) • 4. […] Bottom seal (Millipore, #MATAH0P00) • 7. […] Binding Buffer: 25 mM Hepes (pH 7.4), 1 mM CaCl2, 5 mM MgCl2, 2.5 mM EDTA, 0.4% BSA Assay Volumes
Competition experiments were performed in a 300 μl filtration assay format. • 1. 220 μL of membranes diluted in binding buffer • 2. 40 μL of compound diluted in binding buffer • 3. […] Compound Handling
Compounds were provided frozen on dry ice at a stock concentration of 10 mM diluted in 100% DMSO and stored at −80° C. until the day of testing. On the test day, compounds were allowed to thaw at rt O/N and then diluted in assay buffer according to the desired test concentrations.
Plates were sealed with TopSeal-A, vortexed gently and incubated at rt for 30 min. The reaction was arrested by filtering samples through Multiscreen Harvest plates (pre-soaked in 0.5% polyethyleneimine) using a Tomtec Harvester, washed 9 times with 500 μL of cold 50 mM Tris-HCl (pH 7.4, 4° C.), and then plates were air-dried in a fumehood for 30 min. A bottom seal was applied to the plates prior to the addition of 25 μL of MicroScint-0 to each well. […] Results were expressed as counts per minute (cpm).
Data were analyzed by GraphPad Prism (GraphPad Software, San Diego, Calif.) using a variable slope non-linear regression analysis.
as §1

[3] = [125I]-ghrelin competition, GHS-R/HEK 293 membranes, Table 3A, read-out: Binding Activity at the Human Ghrelin Receptor
[4] = binding activity, standard method, TFA salts unless otherwise noted, read-out: Ki
[5] = binding activity at the human ghrelin receptor, [125I]-ghrelin competition, GHS-R/HEK 293 membranes, read-out: Ki
[6] = binding activity at the human ghrelin receptor, [125I]-ghrelin displacement, read-out: Ki
[7] = second table titled 3C (compounds 435-449), human ghrelin receptor, read-out: Ki

T1 sequence (Q92847 whole entry): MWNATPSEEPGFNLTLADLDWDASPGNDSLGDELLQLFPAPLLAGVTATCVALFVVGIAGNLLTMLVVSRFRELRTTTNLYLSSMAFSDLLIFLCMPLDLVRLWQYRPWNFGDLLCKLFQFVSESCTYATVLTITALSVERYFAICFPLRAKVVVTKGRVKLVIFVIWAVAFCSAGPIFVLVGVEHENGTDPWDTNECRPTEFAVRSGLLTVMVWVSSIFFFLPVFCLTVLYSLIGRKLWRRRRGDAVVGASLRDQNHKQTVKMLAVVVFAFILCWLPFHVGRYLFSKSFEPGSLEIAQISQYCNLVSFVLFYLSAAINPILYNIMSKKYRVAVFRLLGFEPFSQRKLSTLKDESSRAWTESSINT
Sequence of human ghrelin receptor (hGHS-R1a) (Q92847 whole entry): as above

Row | Structure (SMILES) | EC50 [1] [µM] | Ki [2, 4] [µM] | Ki [2, 6] [µM] | other results
1 | CCC(C)C1NCc2ccccc2CCCCNC(=O)C(Cc2ccccc2)NC(=O)C(C)N(C)C1=O (single isomer, unassigned) [194a] | 0.1 to 1 | 0.1 to 1 |  | Ki [2, 3]: 0.1 to 1 µM
2 | CC(C)C[C@@H]1NCCOc2ccccc2C=CCNC(=O)[C@H](Cc2ccccc2)NC(=O)C2(CCCC2)NC1=O (stereo in doubt) [Compound 8] | 0.001 to 0.1 | 0.01 to 0.1 |  | Ki [2, 5]: 0.01 to 0.1 µM
3 | CC(C)C[C@@H]1NCCOc2ccccc2C=CCNC(=O)[C@H](Cc2ccc(Cl)cc2)NC(=O)C2(CCCC2)NC1=O (stereo in doubt) [compound 153] | 0.001 to 0.1 | 0.01 to 0.1 |  | Ki [2, 5]: 0.01 to 0.1 µM
4 | CC(C)C[C@@H]1NCCOc2ccccc2C=CCNC(=O)[C@H](Cc2ccc(F)cc2)NC(=O)C2(CCCC2)NC1=O (stereo in doubt) [compound 154] | 0.001 to 0.1 | 0.01 to 0.1 |  | Ki [2, 5]: 0.01 to 0.1 µM
5 | CC1(C)NC(=O)C2(CCCC2)NCCOc2ccccc2C=CCNC(=O)[C@H](Cc2cccc(Cl)c2)NC1=O (stereo in doubt) [compound 334] | 0.001 to 0.1 | 0.01 to 0.1 |  | Ki ([2]; Table 3C (compounds 18, 334-397), human ghrelin receptor, read-out: Ki): 0.01 to 0.1 µM
6 | CC(C)[C@@H]1NCCOc2ccccc2CCCNC(=O)[C@@H](Cc2ccccc2)NC(=O)CN(C)C1=O [Compound 3] | 0.1 to 1 | 0.1 to 1 |  | Ki [2, 5]: 0.1 to 1 µM
7 | CCC[C@@H]1NCCOc2ccccc2CCCNC(=O)[C@@H](Cc2c[nH]c3ccccc23)NC(=O)CN(C)C1=O [Compound 6] | 0.001 to 0.1 | 0.1 to 1 |  | Ki [2, 5]: 0.1 to 1 µM
8 | CC(C)[C@@H]1NCCOc2ccccc2CCCNC(=O)[C@H](Cc2ccccc2)NC(=O)C2(CCCC2)NC1=O [Compound 9] | 0.1 to 1 | 0.1 to 1 |  | Ki [2, 5]: 0.1 to 1 µM
9 | CC[C@H](C)[C@@H]1NCCOc2ccccc2CCCNC(=O)[C@@H](Cc2ccccc2)NC(=O)[C@@H](C)NC1=O [compound 2] | 0.1 to 1 | 0.1 to 1 |  | Ki [2, 5]: 0.1 to 1 µM
10 | CCC[C@@H]1NCCOc2ccccc2CCCNC(=O)[C@@H](Cc2ccccc2)NC(=O)CN(CC)C1=O [compound 5] | 0.1 to 1 |  |  | Ki [2, 5]: 0.1 to 1 µM
11 | CC[C@H](C)[C@@H]1NCCOc2ccccc2CCCNC(=O)[C@@H](Cc2ccccc2Cl)NC(=O)[C@@H](C)N(C)C1=O [compound 23] | 0.001 to 0.1 | 0.0001 to 0.01 |  | Ki [2, 5]: 0.0001 to 0.01 µM
12 | CC[C@H](C)[C@@H]1NCCOc2ccccc2CCCNC(=O)[C@@H](Cc2cccc3ccccc23)NC(=O)[C@@H](C)N(C)C1=O [compound 30] | 0.001 to 0.1 | 0.0001 to 0.01 |  | Ki [2, 5]: 0.0001 to 0.01 µM
13 | CC(C)C[C@@H]1NCCOc2ccccc2CCCNC(=O)[C@@H](Cc2ccccc2)NC(=O)C2(CCCC2)NC1=O [compound 97] | 0.1 to 1 | 0.01 to 0.1 |  | Ki [2, 5]: 0.1 to 1 µM
14 | CC(C)C[C@@H]1NCCOc2ccccc2CCCNC(=O)[C@H](Cc2ccccc2)NC(=O)C2(CC2)NC1=O [compound 111] | 0.1 to 1 | 0.01 to 0.1 |  | Ki [2, 5]: 0.1 to 1 µM
15 | CC(C)CC1NCCOc2ccccc2CCCNC(=O)C(Cc2ccccc2)NC(=O)C2(CCCC2)NC1=O (stereo not shown) [compound 113] | 0.1 to 1 | 0.01 to 0.1 |  | Ki [2, 5]: 0.1 to 1 µM
16 | CC(C)C[C@@H]1NCCOc2ccccc2/C=C/CNC(=O)C2(CCCC2)NC(=O)C2(CCCC2)NC1=O [compound 168] | > 1 | 0.1 to 1 |  | Ki [2, 3]: 0.1 to 1 µM
17 | CC(C)C1NCCOc2ccccc2CCCNC(=O)C(Cc2ccccc2)NC(=O)C2(CCNCC2)NC1=O (stereo not shown) [compound 207] |  |  |  | Ki [2, 3]: > 10 µM
18 | CC[C@H](C)[C@@H]1NCCOc2ccccc2CCCNC(=O)[C@@H]([C@@H](C)CC)NC(=O)[C@@H](C)N(C)C1=O [compound 209] |  |  |  | Ki [2, 3]: 0.1 to 1 µM
19 | CCC(C)C1NCCOc2ccccc2CCCNC(=O)C(Cc2ccccc2)NC(=O)C(CC)N(C)C1=O (stereo not shown) [compound 212] |  |  |  | Ki [2, 3]: 0.1 to 1 µM
20 | CCC(C)C1NCCOc2ccccc2CCCNC(=O)C(Cc2ccccc2)NC(=O)C2CSCN2C1=O (stereo not shown) [compound 213] |  |  |  | Ki [2, 3]: > 1 µM
21 | CCC(C)C1NCCOc2ccccc2CCCNC(=O)C(Cc2ccccc2)NC(=O)C(COC(C)(C)C)NC1=O (stereo not shown) [compound 215] |  |  |  | Ki [2, 3]: 1 to 10 µM
22 | CC(C)[C@@H]1NCCOc2ccccc2CCCNC(=O)[C@H](Cc2ccccc2)NC(=O)C2(CC2)NC1=O [compound 216] |  |  |  | Ki [2, 3]: 1 to 10 µM
23 | C[C@@H]1C(=O)N[C@H](Cc2ccccc2)C(=O)NCCCc2ccccc2OCCN2CCCC[C@H]2C(=O)N1C [compound 226] | > 1 | 0.01 to 0.1 |  | 
24 | CC1C(=O)NC(Cc2ccc(Cl)cc2)C(=O)NCCCc2ccccc2OCCNC(C2CC2)C(=O)N1C (stereo not shown) [compound 299] | 0.001 to 0.1 | 0.0001 to 0.01 | 0.0001 to 0.01 | 
25 | CC[C@H](C)[C@@H]1NCCOc2ccccc2CCCNC(=O)[C@@H](Cc2c[nH]cn2)NC(=O)[C@@H](C)N(C)C1=O [compound 305] |  |  | 0.1 to 1 | 

Row | Structure (SMILES) | EC50 [1] [µM] | Ki [2, 4] [µM] | Ki [2, 6] [µM] | other results
26 | C[C@@H]1C(=O)N[C@H](Cc2ccc(F)cc2)C(=O)NCCCc2ccccc2OCCN[C@@H](C2CC2)C(=O)N1C [compound 309] |  |  | 0.0001 to 0.01 | 
27 | C[C@@H]1C(=O)N[C@H](Cc2ccccc2F)C(=O)NCCCc2ccccc2OCCN[C@@H](C2CC2)C(=O)N1C [compound 312] |  |  | 0.0001 to 0.01 | 
28 | CC1C(=O)NC(Cc2ccc(Cl)c(Cl)c2)C(=O)NCCCc2ccccc2OCCNC(C2CC2)C(=O)N1C (stereo not shown) [compound 315] |  |  | 0.0001 to 0.01 | 
29 | C[C@@H]1C(=O)N[C@H](Cc2ccc(F)c(F)c2)C(=O)NCCCc2ccccc2OCCN[C@@H](C2CC2)C(=O)N1C [compound 316] |  |  | 0.01 to 0.1 | 
30 | C[C@@H]1C(=O)N[C@H](Cc2cc(F)cc(F)c2)C(=O)NCCCc2ccccc2OCCN[C@@H](C2CC2)C(=O)N1C [compound 317] |  |  | 0.01 to 0.1 | 
31 | C[C@@H]1C(=O)N[C@H](Cc2ccc(Br)cc2)C(=O)NCCCc2ccccc2OCCN[C@@H](C2CC2)C(=O)N1C [compound 319] |  |  | 0.0001 to 0.01 | 
32 | C[C@@H]1C(=O)N[C@H](Cc2ccc(I)cc2)C(=O)NCCCc2ccccc2OCCN[C@@H](C2CC2)C(=O)N1C [compound 320] |  |  | 0.0001 to 0.01 | 
33 | C[C@@H]1C(=O)N[C@H](Cc2ccc(C#N)cc2)C(=O)NCCCc2ccccc2OCCN[C@@H](C2CC2)C(=O)N1C [compound 321] |  |  | 0.01 to 0.1 | 
34 | CC1C(=O)NC(Cc2ccc(C(F)(F)F)cc2)C(=O)NCCCc2ccccc2OCCNC(C2CC2)C(=O)N1C (stereo not shown) [compound 322] | 0.001 to 0.1 | 0.0001 to 0.01 | 0.0001 to 0.01 | 
35 | CCC(C)C1NCCOc2ccccc2C=CCNC(=O)C(Cc2cccc(F)c2)NC(=O)C2(CCCC2)NC1=O (stereo not shown) [compound 325] |  |  | 0.01 to 0.1 | 
36 | CCC(C)C1NCCOc2ccccc2C=CCNC(=O)C(Cc2cccc(OC)c2)NC(=O)C2(CCCC2)NC1=O (stereo not shown) [compound 328] |  |  | 0.01 to 0.1 | 
37 | COC[C@@H]1NCCOc2ccccc2CCCNC(=O)[C@@H](Cc2ccc(F)cc2)NC(=O)[C@@H](C)N(C)C1=O [compound 336] |  |  | 0.1 to 1 | 
38 | C[C@@H]1C(=O)N[C@H](Cc2ccc(F)cc2)C(=O)NCCCc2ccccc2OCCN[C@@H](CN)C(=O)N1C [compound 337] |  |  | 0.1 to 1 | 
39 | C[C@@H]1C(=O)N[C@H](Cc2ccc(F)cc2)C(=O)NCCCc2ccccc2OCCN[C@@H](CCN)C(=O)N1C [compound 338] |  |  | 0.1 to 1 | 
40 | C[C@@H]1C(=O)N[C@H](Cc2ccc(F)cc2)C(=O)NCCCc2ccccc2OCCN[C@@H](CCCN)C(=O)N1C [compound 339] |  |  | 0.1 to 1 | 
41 | CSCC[C@@H]1NCCOc2ccccc2CCCNC(=O)[C@@H](Cc2ccc(F)cc2)NC(=O)[C@@H](C)N(C)C1=O [compound 340] |  |  | 0.01 to 0.1 | 
42 | COc1ccccc1C[C@@H]1NCCOc2ccccc2/C=C/CNC(=O)[C@H](Cc2cccc(Cl)c2)NC(=O)C2(CCCC2)NC1=O [compound 343] |  |  | 0.1 to 1 | 
43 | CCC(C)C1NCCOc2ccccc2C=CCNC(=O)C(COCc2ccccc2)NC(=O)C2(CCCC2)NC1=O (stereo not shown) [compound 347] |  |  | 0.1 to 1 | 
44 | C[C@@H]1C(=O)N[C@H](Cc2cc(F)c(F)c(F)c2)C(=O)NCCCc2ccccc2OCCN[C@@H](C2CC2)C(=O)N1C [compound 391] |  |  | 0.0001 to 0.01 | 
45 | CC1C(=O)NC(Cc2ccc(F)cc2)C(=O)NCC=Cc2ccccc2OCCNC(C2CC2)C(=O)N1C (stereo not shown) [compound 401] |  |  | 0.0001 to 0.01 | 
46 | O=C1NC/C=C/c2ccccc2OCCNC2(CCCC2)C(=O)NC2(CCCC2)C(=O)N[C@H]1Cc1cccc(Cl)c1 [compound 437] |  |  |  | Ki [2, 7]: 0.0001 to 0.01 µM
47 | CCC(C)C1NCCOc2ccccc2C=CCNC(=O)C(Cc2ccc(C(=O)O)cc2)NC(=O)C2(CCCC2)NC1=O (stereo not shown) [compound 441] |  |  |  | Ki [2, 7]: 1 to 10 µM
48 | CCC(C)C1NCCOc2ncccc2CCCNC(=O)C(Cc2cccc(Cl)c2)NC(=O)C2(CCCC2)NC1=O (stereo not shown) [compound 449] |  |  |  | Ki [2, 7]: 1 to 10 µM
49 | C[C@@H]1C(=O)N[C@H](Cc2ccccc2)C(=O)NCCCc2ccccc2OCCN2CCCC[C@H]2C(=O)N1C [drawing 1187] |  |  |  | Ki ([2]; Table 3E, human ghrelin receptor, read-out: Ki): 0.01 to 0.1 µM
